# ChEMBL document CHEMBL4715730, “Design, synthesis, and pharmacological evaluation of multitarget-directed ligands with both serotonergic subtype 4 receptor (5-HT4R) partial agonist and 5-HT6R antagonist activities, as potential treatment of Alzheimer's disease” (Eur J Med Chem, 2016)
# The source made the active and inactive calls. The rule behind the calls is not given here.
# How the values were obtained:
# [1] = target: T1, 5-hydroxytryptamine receptor 6 (Homo sapiens, UniProt P50406); experiment: Displacement of [3H]-LSD from human 5-HT6 receptor expressed in HEK293 cells at 0.01 uM in presence of serotonin incubated for 60 mins; format: cell-based
# [2] = target: 5-hydroxytryptamine receptor 4 (Cavia porcellus) (UniProt O70528); experiment: Displacement of [3H]-GR113808 from guinea pig brain 5HT4 receptor at 1 uM in presence of serotonin incubated for 30 mins; format: tissue-based
# [3] = target: 5-hydroxytryptamine receptor 4 (Cavia porcellus) (UniProt O70528); experiment: Displacement of [3H]-GR113808 from guinea pig brain 5HT4 receptor at 0.01 uM in presence of serotonin incubated for 30 mins; format: tissue-based
# [4] = target: T1, 5-hydroxytryptamine receptor 6; experiment: Displacement of [3H]-LSD from human 5-HT6 receptor expressed in HEK293 cells at 1 uM in presence of serotonin incubated for 60 mins; format: cell-based
# [5] = target: 5-hydroxytryptamine receptor 1B (Rattus norvegicus) (UniProt P28564); experiment: Displacement of [125I]-CYP from rat brain 5-HT1B receptor at 10 uM after 120 mins by scintillation counting analysis relative to control; format: tissue-based
# [6] = Toxicity in NMRI mouse assessed as behavioral changes upto 100 mg/kg, ip measured 0.5 to 24 hrs; format: organism-based; conditions: in vivo, time 0.5-24 hrs
# [7] = target: T2, 5-hydroxytryptamine receptor 1A (Homo sapiens) (UniProt P08908); experiment: Displacement of [3H]8-OH-DPAT from recombinant human 5-HT1A receptor at 10 uM after 60 mins by scintillation counting analysis relative to control
# T2 sequence (whole entry): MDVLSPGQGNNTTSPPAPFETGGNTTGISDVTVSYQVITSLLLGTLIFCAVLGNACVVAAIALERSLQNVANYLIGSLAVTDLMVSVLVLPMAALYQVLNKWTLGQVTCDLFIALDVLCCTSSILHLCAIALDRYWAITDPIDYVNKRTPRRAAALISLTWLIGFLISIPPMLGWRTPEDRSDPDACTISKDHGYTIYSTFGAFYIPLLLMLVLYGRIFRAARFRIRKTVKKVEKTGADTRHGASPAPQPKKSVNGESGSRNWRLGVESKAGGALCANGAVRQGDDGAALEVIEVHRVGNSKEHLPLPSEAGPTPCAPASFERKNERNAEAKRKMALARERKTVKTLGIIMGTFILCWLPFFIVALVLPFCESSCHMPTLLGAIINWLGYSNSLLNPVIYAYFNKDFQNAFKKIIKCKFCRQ
# [8] = target: 5-hydroxytryptamine receptor 2B (Homo sapiens) (UniProt P41595); experiment: Displacement of [125I]+/-DOI from human recombinant 5-HT2B receptor at 0.01 uM after 60 mins by scintillation counting analysis relative to control
# [9] = target: T3, 5-hydroxytryptamine receptor 2C (Homo sapiens) (UniProt P28335); experiment: Displacement of [125I]+/-DOI from human recombinant 5-HT2C receptor at 10 uM after 60 mins by scintillation counting analysis relative to control
# T3 sequence (whole entry): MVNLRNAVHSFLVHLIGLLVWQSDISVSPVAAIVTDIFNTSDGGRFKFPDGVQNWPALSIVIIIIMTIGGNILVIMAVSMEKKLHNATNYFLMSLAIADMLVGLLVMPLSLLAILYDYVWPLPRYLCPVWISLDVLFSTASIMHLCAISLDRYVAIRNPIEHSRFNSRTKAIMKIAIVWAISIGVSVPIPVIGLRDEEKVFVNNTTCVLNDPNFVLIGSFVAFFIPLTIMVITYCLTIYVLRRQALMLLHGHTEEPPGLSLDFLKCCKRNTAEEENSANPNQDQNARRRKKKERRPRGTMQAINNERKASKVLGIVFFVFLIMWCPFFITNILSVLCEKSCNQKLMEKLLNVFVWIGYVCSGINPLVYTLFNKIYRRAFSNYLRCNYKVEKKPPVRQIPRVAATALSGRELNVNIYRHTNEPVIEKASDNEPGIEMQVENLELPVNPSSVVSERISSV
# [10] = target: T4, 5-hydroxytryptamine receptor 2A (Homo sapiens, UniProt P28223); experiment: Displacement of [3H]ketanserin human recombinant 5-HT2A receptor after 60 mins by scintillation counting analysis relative to control
# [11] = target: 5-hydroxytryptamine receptor 2B (Homo sapiens) (UniProt P41595); experiment: Displacement of [125I]+/-DOI from human recombinant 5-HT2B receptor at 10 uM after 60 mins by scintillation counting analysis relative to control
# Mus musculus [12] = experiment: Anti-amnesic effect in scopolamine-induced memory impairment NMRI mouse model assessed as spatial working memory by measuring increase in spontaneous alteration at 0.1 mg/kg, ip measured after 30 mins by Y-maze test; format: functional, organism-based
# [13] = target: T4, 5-hydroxytryptamine receptor 2A; experiment: Displacement of [3H]ketanserin human recombinant 5-HT2A receptor at 10 uM after 60 mins by scintillation counting analysis relative to control
# Mus musculus [14] = experiment: Anti-amnesic effect in scopolamine-induced memory impairment NMRI mouse model assessed as spatial working memory by measuring increase in spontaneous alteration at 10 mg/kg, ip measured after 30 mins by Y-maze test; format: functional, organism-based
# [15] = target: T1, 5-hydroxytryptamine receptor 6; experiment: Displacement of [3H]-LSD from human 5-HT6 receptor expressed in HEK293 cells in presence of serotonin incubated for 60 mins; format: cell-based
# [16] = target: T5, 5-hydroxytryptamine receptor 2C (Homo sapiens, UniProt P28335); experiment: Displacement of [125I]+/-DOI from human recombinant 5-HT2C receptor after 60 mins by scintillation counting analysis
# T5 sequence (P28335 whole entry): T3 sequence (whole entry)
# [17] = Toxicity in NMRI mouse assessed as neurological changes upto 100 mg/kg, ip measured 0.5 to 24 hrs; format: organism-based; conditions: in vivo, time 0.5-24 hrs
# Mus musculus [18] = experiment: Anti-amnesic effect in scopolamine-induced memory impairment NMRI mouse model assessed as spatial working memory by measuring increase in spontaneous alteration at 1 mg/kg, ip measured after 30 mins by Y-maze test; format: functional, organism-based
# [19] = target: 5-hydroxytryptamine receptor 1D (Rattus norvegicus) (UniProt P28565); experiment: Displacement of [3H]serotonin from recombinant rat 5-HT1D receptor at 10 uM after 60 mins by scintillation counting analysis relative to control
# [20] = Effect on spontaneous locomotory activity in NMRI mouse at 100 mg/kg, ip measured for 30 mins; format: organism-based; conditions: in vivo, 0.5 h
# [21] = target: 5-hydroxytryptamine receptor 4 (Cavia porcellus, UniProt O70528); experiment: Displacement of [3H]-GR113808 from guinea pig brain 5HT4 receptor in presence of serotonin incubated for 30 mins; format: tissue-based
# 5-hydroxytryptamine receptor 4, sequence (O70528 whole entry): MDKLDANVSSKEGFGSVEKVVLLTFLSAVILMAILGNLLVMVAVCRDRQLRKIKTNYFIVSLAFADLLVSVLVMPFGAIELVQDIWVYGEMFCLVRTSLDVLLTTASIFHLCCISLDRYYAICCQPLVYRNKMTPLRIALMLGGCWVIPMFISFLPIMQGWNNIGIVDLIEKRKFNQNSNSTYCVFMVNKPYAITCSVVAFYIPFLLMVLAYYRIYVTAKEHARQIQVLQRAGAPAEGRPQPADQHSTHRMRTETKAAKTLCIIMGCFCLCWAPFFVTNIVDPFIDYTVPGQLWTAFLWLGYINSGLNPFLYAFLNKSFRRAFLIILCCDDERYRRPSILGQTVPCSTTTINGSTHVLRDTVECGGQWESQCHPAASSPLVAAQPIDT
# T1 sequence (P50406 whole entry): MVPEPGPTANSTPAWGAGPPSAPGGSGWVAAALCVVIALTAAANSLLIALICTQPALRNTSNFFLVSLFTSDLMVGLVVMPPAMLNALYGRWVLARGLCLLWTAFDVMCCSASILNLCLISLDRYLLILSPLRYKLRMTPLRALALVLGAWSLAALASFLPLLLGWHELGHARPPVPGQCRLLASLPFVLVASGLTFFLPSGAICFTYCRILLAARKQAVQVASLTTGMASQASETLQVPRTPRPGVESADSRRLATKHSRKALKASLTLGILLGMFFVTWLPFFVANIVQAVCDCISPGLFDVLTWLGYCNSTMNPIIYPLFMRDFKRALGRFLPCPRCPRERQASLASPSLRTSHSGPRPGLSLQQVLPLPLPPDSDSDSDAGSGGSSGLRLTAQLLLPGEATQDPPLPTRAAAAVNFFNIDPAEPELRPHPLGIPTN
# 5-hydroxytryptamine receptor 4 (Cavia porcellus), sequence (O70528 whole entry): as the sequence (O70528 whole entry) above
# T4 sequence (P28223 whole entry): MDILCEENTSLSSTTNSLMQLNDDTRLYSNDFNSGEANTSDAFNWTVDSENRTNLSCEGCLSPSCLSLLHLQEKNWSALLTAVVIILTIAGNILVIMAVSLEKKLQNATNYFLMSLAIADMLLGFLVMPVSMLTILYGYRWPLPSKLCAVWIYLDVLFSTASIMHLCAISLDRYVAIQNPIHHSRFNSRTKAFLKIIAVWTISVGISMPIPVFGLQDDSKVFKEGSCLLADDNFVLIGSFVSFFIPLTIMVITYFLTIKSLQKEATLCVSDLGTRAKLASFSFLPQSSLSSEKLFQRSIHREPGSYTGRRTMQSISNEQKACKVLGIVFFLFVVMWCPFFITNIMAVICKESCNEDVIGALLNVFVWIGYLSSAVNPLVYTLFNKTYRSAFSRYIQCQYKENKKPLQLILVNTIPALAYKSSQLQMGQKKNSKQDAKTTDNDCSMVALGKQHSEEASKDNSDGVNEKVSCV
# 5-hydroxytryptamine receptor 2B (Homo sapiens), sequence (P41595 whole entry): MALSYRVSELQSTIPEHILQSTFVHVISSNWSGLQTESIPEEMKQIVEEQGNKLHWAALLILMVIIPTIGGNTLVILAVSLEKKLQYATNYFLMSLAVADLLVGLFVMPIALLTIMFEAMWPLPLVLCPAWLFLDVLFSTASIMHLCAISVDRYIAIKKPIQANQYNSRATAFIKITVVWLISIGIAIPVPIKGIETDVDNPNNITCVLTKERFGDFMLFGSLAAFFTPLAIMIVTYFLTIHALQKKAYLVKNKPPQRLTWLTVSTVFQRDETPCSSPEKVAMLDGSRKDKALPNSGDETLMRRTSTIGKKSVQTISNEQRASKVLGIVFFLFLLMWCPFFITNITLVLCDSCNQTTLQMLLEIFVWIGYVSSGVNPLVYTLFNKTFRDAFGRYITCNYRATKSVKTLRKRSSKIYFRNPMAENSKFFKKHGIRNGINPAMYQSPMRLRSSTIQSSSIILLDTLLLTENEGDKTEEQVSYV
# 5-hydroxytryptamine receptor 1D (Rattus norvegicus), sequence (P28565 whole entry): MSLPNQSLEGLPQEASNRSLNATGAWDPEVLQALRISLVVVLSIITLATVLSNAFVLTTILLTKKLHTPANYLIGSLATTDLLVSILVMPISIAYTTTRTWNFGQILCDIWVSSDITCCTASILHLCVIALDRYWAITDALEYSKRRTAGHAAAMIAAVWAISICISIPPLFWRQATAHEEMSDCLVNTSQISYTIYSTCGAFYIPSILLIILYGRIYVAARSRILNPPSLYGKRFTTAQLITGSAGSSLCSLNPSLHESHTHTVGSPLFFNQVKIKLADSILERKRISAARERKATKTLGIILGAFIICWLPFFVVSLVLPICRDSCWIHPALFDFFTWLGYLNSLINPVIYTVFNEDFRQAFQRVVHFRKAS
# 5-hydroxytryptamine receptor 1B (Rattus norvegicus), sequence (P28564 whole entry): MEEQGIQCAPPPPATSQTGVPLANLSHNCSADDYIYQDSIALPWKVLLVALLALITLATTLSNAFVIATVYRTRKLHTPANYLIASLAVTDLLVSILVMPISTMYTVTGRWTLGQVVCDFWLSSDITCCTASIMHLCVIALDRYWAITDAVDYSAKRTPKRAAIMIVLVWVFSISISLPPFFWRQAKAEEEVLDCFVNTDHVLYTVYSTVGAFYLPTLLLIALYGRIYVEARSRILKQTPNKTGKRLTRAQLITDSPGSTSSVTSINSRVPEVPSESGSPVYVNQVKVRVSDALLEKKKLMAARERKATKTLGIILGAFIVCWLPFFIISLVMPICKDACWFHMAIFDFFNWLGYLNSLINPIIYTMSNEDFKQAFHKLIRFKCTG
Compound,inhibition [1],inhibition [3] [%],inhibition ([2]; filed as agonist) [%],inhibition ([3]; filed as agonist) [%],inhibition ([4]; filed as antagonist) [%],Ki ([21]; read-out: Ki) [nM],also measured
COc1ccc(S(=O)(=O)N2CCC(CCC(=O)c3cc(Cl)c(N)cc3OC)CC2)cc1,inactive,10,,,,,inhibition [2]: 20%; inhibition [4]: inactive
COc1cc(N)c(Cl)cc1C(=O)CCC1CCN(CCNS(=O)(=O)c2ccc(N)c(Br)c2)CC1,39%,,100,60,85,5.3,inhibition [5]: 62.3%; Activity [6]: Non-Toxic; inhibition [7]: 66.1%; inhibition [8]: 41%; inhibition [9]: 92.6%; Ki [10]: 330 nM; inhibition [11]: 100%; Activity (Mus musculus [12]): inactive; inhibition [13]: 93.6%; Activity (Mus musculus [14]): inactive; Ki ([15]; read-out: Ki): 219 nM; Ki [16]: 160 nM; Activity [17]: Non-Toxic; Activity (Mus musculus [18]): Active; inhibition [19]: 51.1%; Activity [20]: Non-Toxic
COc1ccc(S(=O)(=O)NCCCN2CCC(CCC(=O)c3cc(Cl)c(N)cc3OC)CC2)cc1,inactive,,100,41,,26,inhibition [4]: inactive
CCCCN1CCC(CCC(=O)c2cc(Cl)c(N)cc2OC)CC1,,,,,,,Ki ([15]; hek293): Active; Ki [21]: Active
COc1cc(N)c(Cl)cc1C(=O)CCC1CCN(CCNS(=O)(=O)c2ccc(C)cc2)CC1,inactive,20,100,,,18,inhibition [4]: 15%
COc1cc(N)c(Cl)cc1C(=O)CCC1CCN(CCNS(=O)(=O)c2ccc(OC)c(N3CCN(C)CC3)c2)CC1,4%,,97,75,43,3.46,
COc1ccc(S(=O)(=O)NCCN2CCC(CCC(=O)c3cc(Cl)c(N)cc3OC)CC2)cc1Cl,20%,,100,41,85,22.5,Ki ([15]; read-out: Ki): 158 nM
COc1cc(N)c(Cl)cc1C(=O)CCC1CCN(CCNS(=O)(=O)c2ccc3c(c2)N(C)CCO3)CC1,inactive,12,100,,,50,inhibition [4]: 7%
COc1cc(N)c(Cl)cc1C(=O)CCC1CCN(CCNS(=O)(=O)c2ccc(N)cc2)CC1,7%,,100,76,46,1.97,
COc1ccc(NS(=O)(=O)c2sc3ccc(Cl)cc3c2C)cc1N1CCNCC1,,,,,,,Ki ([15]; hek293): Active
COc1cc(N)c(Cl)cc1C(=O)CCC1CCN(CCNS(=O)(=O)c2ccc3c(c2)NC(=O)CO3)CC1,inactive,30,100,,,6.2,inhibition ([4]; filed as agonist): 40%
COc1ccc(S(=O)(=O)NCCN2CCC(CCC(=O)c3cc(Cl)c(N)cc3OC)CC2)cc1OC,3%,30,100,,58,8.2,
COc1ccc(S(=O)(=O)CCCN2CCC(CCC(=O)c3cc(Cl)c(N)cc3OC)CC2)cc1,10%,11,100,,,12.2,inhibition [4]: 33%
COc1cc(N)c(Cl)cc1C(=O)CCC1CCN(CCNS(=O)(=O)c2cc(Br)c(N)c(Br)c2)CC1,,,100,46,83,8.7,inhibition ([1]; filed as antagonist): 52%; Ki ([15]; read-out: Ki): 140 nM
COc1ccc(S(=O)(=O)NCCN2CCC(CCC(=O)c3cc(Cl)c(N)cc3OC)CC2)c(OC)c1,inactive,19,100,,45,18.7,
COc1cc(N)c(Cl)cc1C(=O)CCC1CCN(CCNS(=O)(=O)c2ccc(NC(C)=O)cc2)CC1,7%,,100,56,67,7.7,Ki ([15]; read-out: Ki): 834 nM
COc1ccc(S(=O)(=O)NCCN2CCC(CCC(=O)c3cc(Cl)c(N)cc3OC)CC2)cc1Br,inactive,24,99,,72,24.3,Ki ([15]; read-out: Ki): 147 nM
COc1cc(N)c(Cl)cc1C(=O)CCC1CCN(CCNS(=O)(=O)c2cc(Br)ccc2Br)CC1,16%,,100,51,52,16.3,
COc1ccc(S(=O)(=O)NCCN2CCC(CCC(=O)c3cc(Cl)c(N)cc3OC)CC2)cc1,36%,,100,48,52,12.3,
